In brackets after ≈: the same amount, converted by molar mass.

Data set [1] deals with HBV replication. Nature of the data set: Anti-HBV antiviral assay in standardized culture assay. To be noted: for EC50: Hepatitis B virus, read-out: EC50 (anti-HBV activity); for SI (CC50/EC50): selectivity index, ratio of CC50 to EC50; for activity against HBV replication (in words): human hepatoblastoma cell line, activity order 5 > 6 > 4 > 3 > 1 > 2 > 7.
Data set [2] can be described thus: Toxicity in standardized culture assay. To be noted: human.
The mark [3] stands for this setting: HBV-producing human hepatoblastoma cell line.

On to `CO[C@H]1C=C/C(=C/C#N)[C@@H](O[C@@H]2O[C@H](CO)[C@@H](O)[C@H](O)[C@H]2O)C1` [Compound 1, Menisdaurin B], for which, in data set [1], the EC50 was determined as 23.8 ± 0.5 mg/L (≈ 72.7 µM) and the “SI (CC50/EC50)” value was 7.5. Further, in data set [2], it took 178 ± 13.3 mg/L (≈ 544 µM) to reach half-maximal cytotoxicity (CC50).

Turning to `CO[C@H]1CC/C(=C/C#N)[C@@H](O[C@@H]2O[C@H](CO)[C@@H](O)[C@H](O)[C@H]2O)C1` [Compound 2, Menisdaurin C], in data set [1], the EC50 is 30.7 ± 1 mg/L (≈ 93.2 µM) and the “SI (CC50/EC50)” value amounted to 5.4. This compound yielded a CC50 in data set [2] of 165 ± 10.4 mg/L (≈ 501 µM).

Turning to `N#C/C=C1/CC[C@H](O)C[C@@H]1O[C@@H]1O[C@H](CO)[C@@H](O)[C@H](O)[C@H]1O` [Compound 3, Menisdaurin D], in data set [1], the EC50 was found to be 19.4 ± 0.3 mg/L (≈ 61.5 µM) and the “SI (CC50/EC50)” value is on record as 9.4. In data set [2], the CC50 turned out to be 182 ± 6.8 mg/L (≈ 577 µM).

As to `N#C/C=C1/CC[C@H](O)C[C@@H]1O` [Compound 4, Menisdaurin E], in data set [1], the EC50 is 8.7 ± 1.1 mg/L (≈ 56.8 µM) and the “SI (CC50/EC50)” value is 8.3. Also, in data set [2] (setting [3]), the CC50 worked out at 72.3 ± 4.1 mg/L (≈ 472 µM).

As for `N#C/C=C1/C=C[C@H](O)C[C@@H]1O[C@@H]1O[C@H](CO)[C@@H](O)[C@H](O)[C@H]1O` [Compound 5, menisdaurin], in data set [1], the EC50 came out at 5.1 ± 0.2 mg/L (≈ 16.3 µM), the “activity against HBV replication (in words)” value is “most effective activity” and the “SI (CC50/EC50)” value is 11.3. Besides, the CC50 in data set [2] is 57.8 ± 3.9 mg/L (≈ 184 µM).

`N#C/C=C1\C=C[C@H](O)C[C@@H]1O` [Compound 6, coclauril]: in data set [1], the EC50 was found to be 7.6 ± 0.5 mg/L (≈ 50.3 µM) and the “SI (CC50/EC50)” value is reported as 11.0. The midpoint of cytotoxicity in data set [2], the CC50, lay at 83.9 ± 2.3 mg/L (≈ 555 µM).

Consider `O=C1C=C2C=C[C@@H](O)C[C@H]2O1` [Compound 7, menisdaurilide], for which, in data set [1], the EC50 came out at 80.7 ± 5.8 mg/L (≈ 530 µM), the “activity against HBV replication (in words)” value was “lesser degree of specific activity” and the “SI (CC50/EC50)” value was found to be 2.7. The same compound had a CC50 in data set [2] (setting [3]) of 215 ± 14.7 mg/L (≈ 1410 µM).

Regarding `Nc1ccn([C@@H]2CS[C@H](CO)O2)c(=O)n1` [Lamivudine, reference compound], in data set [1], the EC50 was 0.1 ± 0.03 mg/L (≈ 0.436 µM).

Source of the values: paper PMC6332330, “Four New Cyclohexylideneacetonitrile Derivatives from the Hypocotyl of Mangrove (Bruguiera gymnorrhiza)” (Molecules, 2015).
